# According to BindingDB's records for doi:10.1016/j.bmcl.2016.04.011 (The University of Jordan, 2016):
# Legend:
# [1] = Inhibition of EGFR in human MDA231 cells assessed as growth inhibition after 24 hrs by MTT assay
# [2] = Inhibition of PI3Kalpha in human HCT116 cells coexpressing PI3Kalpha H1047R mutant assessed as growth inhibition after 24 hrs by MTT assay
IC50 [1],IC50 [2],Compound
15 µM,19 µM,O=C(Nc1cccc(C(O)c2ccccc2)c1)c1cc2ccccc2[nH]1 (stereo unspecified)
35 µM,37 µM,CC(O)c1ccc(NC(=O)c2cc3ccccc3[nH]2)cc1 (stereo unspecified)
45 µM,55 µM,O=C(c1ccccc1)c1cccc(NC(=O)c2cc3ccccc3[nH]2)c1
34 µM,38 µM,CC(O)c1cccc(NC(=O)c2cc3ccccc3[nH]2)c1 (stereo unspecified)
57 µM,64 µM,CC(=O)c1cccc(NC(=O)c2cc3ccccc3[nH]2)c1
38 µM,44 µM,O=C(Nc1ccc(C(O)c2ccccc2)cc1)c1cc2ccccc2[nH]1 (stereo unspecified)
50 µM,61 µM,CC(=O)c1ccc(NC(=O)c2cc3ccccc3[nH]2)cc1
49 µM,54 µM,O=C(c1ccccc1)c1ccc(NC(=O)c2cc3ccccc3[nH]2)cc1
